Reference: patent US20230081720A1, “MCL-1 INHIBITOR ANTIBODY-DRUG CONJUGATES AND METHODS OF USE” (NOVARTIS AG, priority 2019, published 2023)
Where a name gives a salt, the structure may show the parent alone. Read-outs that look alike come from different tables or passages of the source.

How the values were obtained:
EOL-1 = assay type: cell-based
Method: (§1) Cell lines were cultured in media that is optimal for their growth at 5% CO2, 37° C. in a tissue culture incubator. Prior to seeding for the proliferation assay, the cells were split at least 2 days before the assay to ensure optimal growth density. […] Cell viability and cell density were determined using a cell counter (Vi-Cell XR Cell Viability Analyzer, Beckman Coulter). […] Cells were seeded at a density of 1,000 cells per well in 45 μL of standard growth media. Plates were incubated at 5% CO2, 37° C. overnight in a tissue culture incubator. […] Each drug concentration was tested in quadruplets. […] Plates were incubated at room temperature for 10 minutes to stabilize luminescent signals prior to reading using a luminescence reader (EnVision Multilabel Plate Reader, PerkinElmer). To evaluate the effect of the drug treatments, luminescent counts from wells containing untreated cells (100% viability) were used to normalize treated samples.

NOMO-1 = assay type: cell-based
Method: as §1

[1] = CD74 ADC with the named linker-payload, 5 days
[2] = CD74 ADC with the named linker-payload, 5 days, read-out: EOL-1 IC50
[3] = CD74 ADC with the named linker-payload, 5 days, read-out: NOMO-1 IC50

Row | Compound | IC50 (EOL-1) [nM] | EOL-1 Amax (EOL-1; [1]) | IC50 (NOMO-1) [nM] | NOMO-1 Amax (NOMO-1; [1]) | IC50 (EOL-1; [2]) [nM] | IC50 (NOMO-1; [3]) [nM]
1 | COc1ccccc1-c1nccc(COc2ccccc2C[C@@H](Oc2ncnc3sc(-c4ccc(F)cc4)c(-c4ccc(OCCN5CC[N+](C)(Cc6ccc(NC(=O)[C@H](CCCNC(N)=O)NC(=O)[C@@H](NC(=O)CCOCCN7C(=O)C=CC7=O)C(C)C)cc6CN(C)C(=O)CN(C)C(=O)CN(C)C(=O)CN(C)C(=O)CN(C)C(=O)CN(C)C(=O)CN(C)C(=O)CN(C)C(=O)CN(C)C(=O)CN(C)C(=O)CN(C)C(=O)CN(C)C(=O)CN(C)C(=O)CCC(=O)O)CC5)c(Cl)c4C)c23)C(=O)O)n1 [L35-P1] | 0.894 | 75.56 | 6.9 | 62.73 | – | –
2 | COc1ccccc1-c1nccc(COc2ccccc2C[C@@H](Oc2ncnc3sc(-c4ccc(F)cc4)c(-c4ccc(OCCN5CC[N+](C)(Cc6ccc(NC(=O)[C@H](CCCNC(N)=O)NC(=O)[C@@H](NC(=O)CCOCCN7C(=O)C=CC7=O)C(C)C)cc6COCc6cn(CCOC(=O)NS(=O)(=O)NCCOCCOCCOCCC(=O)O)nn6)CC5)c(Cl)c4C)c23)C(=O)O)n1 [L60-P1, trifluoroacetate] | – | 79.04 | – | 76.94 | 0.535 | 2.62
3 | COc1ccccc1-c1nccc(COc2ccccc2C[C@@H](Oc2ncnc3sc(-c4ccc(F)cc4)c(-c4ccc(OCCN5CC[N+](C)(Cc6ccc(NC(=O)[C@H](CCCNC(N)=O)NC(=O)[C@@H](NC(=O)CCOCCN7C(=O)C=CC7=O)C(C)C)cc6COCc6cn(CCOC(=O)NS(=O)(=O)NCCOCCOCCO[C@@H]7O[C@H](CO)[C@@H](O)[C@H](O)[C@H]7O)nn6)CC5)c(Cl)c4C)c23)C(=O)O)n1 [L62-P1, trifluoroacetate] | – | 83.03 | – | 65.18 | 0.771 | 3.41
4 | COc1ccccc1-c1nccc(COc2ccccc2C[C@@H](Oc2ncnc3sc(-c4ccc(F)cc4)c(-c4ccc(OCCN5CC[N+](C)(Cc6ccc(NC(=O)[C@H](CCCNC(N)=O)NC(=O)[C@@H](NC(=O)CCOCCN7C(=O)C=CC7=O)C(C)C)cc6COCc6cn(CCOC(=O)NS(=O)(=O)NCCOCCO[C@@H]7O[C@H](CO)[C@@H](O)[C@H](O)[C@H]7O)nn6)CC5)c(Cl)c4C)c23)C(=O)O)n1 [L63-P1, trifluoroacetate] | – | – | – | 61.25 | – | 0.714
5 | COc1ccccc1-c1nccc(COc2ccccc2C[C@@H](Oc2ncnc3sc(-c4ccc(F)cc4)c(-c4ccc(OCCN5CC[N+](C)(Cc6ccc(NC(=O)[C@H](CCCNC(N)=O)NC(=O)[C@@H](NC(=O)CCOCCN7C(=O)C=CC7=O)C(C)C)cc6CN(C)C(=O)CN(CC(=O)O)CC(=O)O)CC5)c(Cl)c4C)c23)C(=O)O)n1 [L67-P1, 1-(2-((2-(bis(carboxymethyl)amino)-N-methylacetamido)methyl)-4-((S)-2-((S)-2-(3-(2-(2,5-dioxo-2,5-dihydro-1H-pyrrol-1-yl)ethoxy)propanamido)-3-methylbutanamido)-5-ureidopentanamido)benzyl)-4-(2-(4-(4-((R)-1-carboxy-2-(2-((2-(2-methoxyphenyl)pyrimidin-4-yl)methoxy)phenyl)ethoxy)-6-(4-fluorophenyl)thieno[2,3-d]pyrimidin-5-yl)-2-chloro-3-methylphenoxy)ethyl)-1-methylpiperazin-1-ium] | 0.261 | 119.3 | 2.49 | 79.39 | – | –
6 | COc1ccccc1-c1nccc(COc2ccccc2C[C@@H](Oc2ncnc3sc(-c4ccc(F)cc4)c(-c4ccc(OCCN5CC[N+](C)(Cc6ccc(NC(=O)[C@H](CCCNC(N)=O)NC(=O)[C@@H](NC(=O)CCOCCN7C(=O)C=CC7=O)C(C)C)cc6CN(C)C(=O)C[C@H](NC(=O)[C@@H]6O[C@H](O)[C@@H](O)[C@H](O)[C@H]6O)C(=O)O)CC5)c(Cl)c4C)c23)C(=O)O)n1 [L68-P1] | – | 127.3 | – | 91.25 | 0.788 | 6.91
7 | COc1ccccc1-c1nccc(COc2ccccc2C[C@@H](Oc2ncnc3sc(-c4ccc(F)cc4)c(-c4ccc(OCCN5CC[N+](C)(Cc6ccc(NC(=O)[C@H](CCCNC(N)=O)NC(=O)[C@@H](NC(=O)CCOCCN7C(=O)C=CC7=O)C(C)C)cc6CN(C)C(=O)C[C@H](NC(=O)OC6O[C@H](C(=O)O)[C@@H](O)[C@H](O)[C@H]6O)C(=O)O)CC5)c(Cl)c4C)c23)C(=O)O)n1 (stereo partly drawn) [L69-P1] | – | 159.6 | – | 95.03 | 0.704 | 14.8
8 | COc1ccccc1-c1nccc(COc2ccccc2C[C@@H](Oc2ncnc3sc(-c4ccc(F)cc4)c(-c4ccc(OCCN5CC[N+](C)(Cc6ccc(NC(=O)[C@H](CCCNC(N)=O)NC(=O)[C@@H](NC(=O)CCOCCN7C(=O)C=CC7=O)C(C)C)cc6CN(C)C(=O)[C@H](CCC(=O)O)NC(=O)CS(=O)(=O)O)CC5)c(Cl)c4C)c23)C(=O)O)n1 [L71-P1, 4-(2-(4-(4-((R)-1-carboxy-2-(2-((2-(2-methoxyphenyl)pyrimidin-4-yl)methoxy)phenyl)ethoxy)-6-(4-fluorophenyl)thieno[2,3-d]pyrimidin-5-yl)-2-chloro-3-methylphenoxy)ethyl)-1-(2-(((S)-4-carboxy-N-methyl-2-(2-sulfoacetamido)butanamido)methyl)-4-((S)-2-((S)-2-(3-(2-(2,5-dioxo-2,5-dihydro-1H-pyrrol-1-yl)ethoxy)propanamido)-3-methylbutanamido)-5-ureidopentanamido)benzyl)-1-methylpiperazin-1-ium] | – | 93.09 | – | 53.62 | 0.341 | 9.82
9 | COCCOCCOCCOCCOCCOCCOCCOCCOCCOCCOCCOCCC(=O)N[C@@H](CCC(=O)O)C(=O)N(C)Cc1cc(NC(=O)[C@H](CCCNC(N)=O)NC(=O)[C@@H](NC(=O)CCOCCN2C(=O)C=CC2=O)C(C)C)ccc1C[N+]1(C)CCN(CCOc2ccc(-c3c(-c4ccc(F)cc4)sc4ncnc(O[C@H](Cc5ccccc5OCc5ccnc(-c6ccccc6OC)n5)C(=O)O)c34)c(C)c2Cl)CC1 [L72-P1] | – | 109.8 | – | 57.68 | 0.386 | –
10 | COc1ccccc1-c1nccc(COc2ccccc2C[C@@H](Oc2ncnc3sc(-c4ccc(F)cc4)c(-c4ccc(OCCN5CC[N+](C)(Cc6ccc(NC(=O)[C@H](CCCNC(N)=O)NC(=O)[C@@H](NC(=O)CCOCCN7C(=O)C=CC7=O)C(C)C)cc6CN(C)C(=O)[C@H](CCCCNC(=O)CS(=O)(=O)O)NC(=O)CS(=O)(=O)O)CC5)c(Cl)c4C)c23)C(=O)O)n1 [L78-P1, 4-(2-(4-(4-((R)-1-carboxy-2-(2-((2-(2-methoxyphenyl)pyrimidin-4-yl)methoxy)phenyl)ethoxy)-6-(4-fluorophenyl)thieno[2,3-d]pyrimidin-5-yl)-2-chloro-3-methylphenoxy)ethyl)-1-(4-((S)-2-((S)-2-(3-(2-(2,5-dioxo-2,5-dihydro-1H-pyrrol-1-yl)ethoxy)propanamido)-3-methylbutanamido)-5-ureidopentanamido)-2-(((S)-N-methyl-2,6-bis(2-sulfoacetamido)hexanamido)methyl)benzyl)-1-methylpiperazin-1-ium] | – | 87.22 | – | 53.4 | 0.43 | 3.73
11 | COc1ccccc1-c1nccc(COc2ccccc2C[C@@H](Oc2ncnc3sc(-c4ccc(F)cc4)c(-c4ccc(OCCN5CC[N+](C)(Cc6ccc(NC(=O)[C@H](CCCNC(N)=O)NC(=O)[C@@H](NC(=O)CCOCCN7C(=O)C=CC7=O)C(C)C)cc6CN(C)C(=O)C[C@H](NC(=O)CS(=O)(=O)O)C(=O)O)CC5)c(Cl)c4C)c23)C(=O)O)n1 [L79-P1, 4-(2-(4-(4-((R)-1-carboxy-2-(2-((2-(2-methoxyphenyl)pyrimidin-4-yl)methoxy)phenyl)ethoxy)-6-(4-fluorophenyl)thieno[2,3-d]pyrimidin-5-yl)-2-chloro-3-methylphenoxy)ethyl)-1-(2-(((S)-3-carboxy-N-methyl-3-(2-sulfoacetamido)propanamido)methyl)-4-((S)-2-((S)-2-(3-(2-(2,5-dioxo-2,5-dihydro-1H-pyrrol-1-yl)ethoxy)propanamido)-3-methylbutanamido)-5-ureidopentanamido)benzyl)-1-methylpiperazin-1-ium] | 0.492 | 91.3 | 3.14 | 56.07 | – | –
12 | COc1ccccc1-c1nccc(COc2ccccc2C[C@@H](Oc2ncnc3sc(-c4ccc(F)cc4)c(-c4ccc(OCCN5CC[N+](C)(Cc6ccc(NC(=O)[C@H](CCCNC(N)=O)NC(=O)[C@@H](NC(=O)CCOCCN7C(=O)C=CC7=O)C(C)C)cc6CN(C)C(=O)[C@H](N)CS(=O)(=O)O)CC5)c(Cl)c4C)c23)C(=O)O)n1 [L86-P1] | 0.721 | 105.5 | 7.47 | 74.52 | – | –
